Experimental data published in patent US8008292B2, “Condensed benzamide compounds and inhibitors of vanilloid receptor subtype 1 (VR1) activity” (Japan Tobacco Inc., priority 2004, dated 2011).
pIC50: −log10 of the molar value. Where a name gives a salt, the structure may show the parent alone.

target: T1, human VR1 (Homo sapiens, UniProt Q8NER1); assay: Inhibition of Ca2+ entry in cells caused by proton, in rat glioma (C6BU1) cells stably expressing human VR1 (Fura 2 fluorescence); type: cell-based; settings: inhibition of proton-induced Ca2+ entry
T1 construct: expressed in transfected cells
Procedure, shortened: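 Fura 2-loaded C6BU1 cells in 20 mM MES buffer pH 6.8 with added Ca2+ were preincubated 10 min with compound (final 1 μM to 0.1 nM, 1% DMSO). Proton stimulation brought pH to 5.5. Fluorescence rise was measured, and IC50 was derived from % inhibition versus DMSO control.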

T1 sequence (Q8NER1 whole entry): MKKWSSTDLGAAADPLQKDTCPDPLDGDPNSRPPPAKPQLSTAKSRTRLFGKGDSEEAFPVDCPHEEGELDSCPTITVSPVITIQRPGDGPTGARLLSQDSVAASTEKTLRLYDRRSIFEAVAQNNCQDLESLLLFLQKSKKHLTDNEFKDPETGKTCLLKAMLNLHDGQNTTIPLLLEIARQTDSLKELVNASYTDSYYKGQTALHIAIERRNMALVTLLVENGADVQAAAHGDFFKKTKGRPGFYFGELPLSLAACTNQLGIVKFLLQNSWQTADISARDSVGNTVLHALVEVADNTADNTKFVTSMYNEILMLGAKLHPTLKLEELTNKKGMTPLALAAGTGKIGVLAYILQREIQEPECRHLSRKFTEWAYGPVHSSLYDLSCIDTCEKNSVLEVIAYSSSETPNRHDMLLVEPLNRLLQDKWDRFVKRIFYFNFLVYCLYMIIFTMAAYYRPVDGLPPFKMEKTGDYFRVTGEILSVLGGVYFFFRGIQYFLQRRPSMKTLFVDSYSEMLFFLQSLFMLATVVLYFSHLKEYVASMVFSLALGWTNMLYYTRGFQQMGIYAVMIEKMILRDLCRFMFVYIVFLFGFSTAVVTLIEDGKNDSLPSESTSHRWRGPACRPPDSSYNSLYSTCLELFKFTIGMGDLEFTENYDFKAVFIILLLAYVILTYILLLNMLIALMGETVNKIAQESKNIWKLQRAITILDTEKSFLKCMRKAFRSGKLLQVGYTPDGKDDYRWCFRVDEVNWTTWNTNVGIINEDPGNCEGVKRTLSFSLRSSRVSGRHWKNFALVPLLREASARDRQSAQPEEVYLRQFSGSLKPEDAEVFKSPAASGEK

Row | pIC50 | SMILES
1 | > 7.00 | Cc1ccc(N2c3cccc(C(=O)Nc4ccc(C(F)(F)F)cc4)c3OC[C@@H]2CO)nc1 [Example 4-08, (S)-4-(5-picoline-2-yl)-3-hydroxylmethyl-N-(4-trifluoromethylphenyl)-3,4-dihydro-2H-benzo[1,4]oxazine-8-carboxamide]
2 | > 7.00 | O=C(Nc1ccc(N2CCCCC2)c(F)c1)c1cccc2c1OC[C@H](CO)N2c1ncccc1Cl [Example 4-10]
3 | > 7.00 | O=C(Nc1ccc(OC(F)(F)F)c(Cl)c1)c1cccc2c1OC[C@H](CO)N2c1ncccc1Cl [Example 4-11]
4 | > 7.00 | CN(C)c1ccc(NC(=O)c2cccc3c2OC[C@H](CO)N3c2ncccc2Cl)cc1F [Example 4-12]
5 | > 7.00 | Cc1ccc(NC(=O)c2cccc3c2OC[C@H](CO)N3c2ncccc2Cl)cc1F [Example 4-13]
6 | > 7.00 | CC(C)(C)[C@H]1CC[C@H](NC(=O)c2cccc3c2OC[C@H](CO)N3c2ncccc2Cl)CC1 [Example 4-14]
7 | > 7.00 | CC(C)(C)COc1ccc(NC(=O)c2cccc3c2OC[C@H](CO)N3c2ncccc2Cl)cc1 [Example 4-15]
8 | > 7.00 | O=C(Nc1ccc(Cl)cc1)c1cccc2c1OC[C@H](CO)N2c1ncccc1Cl [Example 4-16]
9 | > 7.00 | O=C(Nc1ccc(F)c(C(F)(F)F)c1)c1cccc2c1OC[C@H](CO)N2c1ncccc1Cl [Example 4-18]
10 | > 7.00 | O=C(Nc1ccc(Br)c(Cl)c1)c1cccc2c1OC[C@H](CO)N2c1ncccc1Cl [Example 4-19]
11 | > 7.00 | CN(C)c1ccc(NC(=O)c2cccc3c2OC[C@H](CO)N3c2ncccc2Cl)cc1C(F)(F)F [Example 4-20]
12 | > 7.00 | CC(C)Oc1ccc(NC(=O)c2cccc3c2OC[C@H](CO)N3c2ncccc2Cl)cc1C(F)(F)F [Example 4-21]
13 | > 7.00 | O=C(Nc1ccc(N2CCCCC2)c(C(F)(F)F)c1)c1cccc2c1OC[C@H](CO)N2c1ncccc1Cl [Example 4-22]
14 | > 7.00 | CCOc1ccc(NC(=O)c2cccc3c2OC[C@H](CO)N3c2ncccc2Cl)cc1F [Example 4-23]
15 | > 7.00 | COc1cnc(N2c3cccc(C(=O)Nc4ccc(C(F)(F)F)cc4)c3OC[C@@H]2CO)c(Cl)c1 [Example 4-25]
16 | > 7.00 | COc1cnc(N2c3cccc(C(=O)Nc4ccc(OC(F)(F)F)cc4)c3OC[C@@H]2CO)c(Cl)c1 [Example 4-26]
17 | > 7.00 | Cc1ccc(N2c3cccc(C(=O)Nc4ccc(C(F)(F)F)nc4)c3OC[C@@H]2CO)nc1 [Example 4-27]
18 | > 7.00 | COc1ccc(NC(=O)c2cccc3c2OC[C@H](CO)N3c2ccc(C)cn2)cc1C(F)(F)F [Example 4-28]
19 | > 7.00 | Cc1ccc(N2c3cccc(C(=O)Nc4ccc(Cl)c(Cl)c4)c3OC[C@@H]2CO)nc1 [Example 4-32]

Row | pIC50 | SMILES
20 | > 7.00 | CC(C)COc1ccc(NC(=O)c2cccc3c2OC[C@H](CO)N3c2ncccc2Cl)cc1C(F)(F)F [Example 4-33]
21 | > 7.00 | O=C(Nc1ccc(Cl)c(Cl)c1)c1cccc2c1OC[C@H](CO)N2c1ncccc1Cl [Example 4-34]
22 | > 7.00 | O=C(Nc1ccc(Cl)c(C(F)(F)F)c1)c1cccc2c1OC[C@H](CO)N2c1ncccc1Cl [Example 4-35]
23 | > 7.00 | O=C(Nc1ccc(Br)c(F)c1)c1cccc2c1OC[C@H](CO)N2c1ncccc1Cl [Example 4-36]
24 | > 7.00 | Cc1ccc(N2c3cccc(C(=O)Nc4ccc(Cl)c(C(F)(F)F)c4)c3OC[C@@H]2CO)nc1 [Example 4-37]
25 | > 7.00 | Cc1ccc(N2c3cccc(C(=O)Nc4ccc(OC(C)C)c(C(F)(F)F)c4)c3OC[C@@H]2CO)nc1 [Example 4-38]
26 | > 7.00 | Cc1ccc(N2c3cccc(C(=O)Nc4ccc(OC(C)C)c(F)c4)c3OC[C@@H]2CO)nc1 [Example 4-46]
27 | > 7.00 | Cc1ccc(N2c3cccc(C(=O)Nc4ccc(Br)c(F)c4)c3OC[C@@H]2CO)nc1 [Example 4-51]
28 | > 7.00 | O=C(Nc1ccc(C(F)(F)F)c(F)c1)c1cccc2c1OC[C@H](CO)N2c1ncccc1Cl [Example 4-53]
29 | > 7.00 | Cc1ccc(N2c3cccc(C(=O)Nc4ccc(F)c(C(F)(F)F)c4)c3OC[C@@H]2CO)nc1 [Example 4-55]
30 | > 7.00 | CC(O)C1COc2c(C(=O)Nc3ccc(OC(F)(F)F)cc3)cccc2N1c1ncccc1Cl (centres unmarked) [Example 4-56]
31 | 6.00 to 7.00 | CC(C)(C)c1ccc(NC(=O)c2cccc3c2OCCN3c2cnccn2)cc1 [Example 5-1, N-(4-tert-butylphenyl)-4-(pyrazine-2-yl)-3,4-dihydro-2H-benzo[1,4]oxazine-8-carboxamide]
32 | 6.00 to 7.00 | CCc1cnc(N2CCOc3c(C(=O)Nc4ccc(Cl)cc4)cccc32)nc1 [Example 5-2, N-(4-chlorophenyl)-4-(5-ethylpyrimidin-2-yl)-3,4-dihydro-2H-benzo[1,4]oxazine-8-carboxamide]
33 | > 7.00 | Cc1cnc(N2c3cccc(C(=O)Nc4ccc(OC(F)(F)F)cc4)c3OC[C@@H]2CO)s1 [Example 6-1, (S)-3-hydroxymethyl-4-(5-methylthiazol-2-yl)-N-(4-trifluoromethoxyphenyl)-3,4-dihydro-2H-benzo[1,4]oxazine-8-carboxamide]
34 | > 7.00 | Cc1cnc(N2c3cccc(C(=O)Nc4ccc(Cl)c(Cl)c4)c3OC[C@@H]2CO)s1 [Example 6-3, (S)-N-(3,4-dichlorophenyl)-3-hydroxymethyl-4-(5-methylthiazol-2-yl)-3,4-dihydro-2H-benzo[1,4]oxazine-8-carboxamide hydrochloride]
35 | > 7.00 | Cc1cnc(N2c3cccc(C(=O)Nc4ccc(OC(C)C)c(F)c4)c3OC[C@@H]2CO)s1 [Example 6-4]
36 | > 7.00 | Cc1cnc(N2c3cccc(C(=O)Nc4ccc(OC(C)(C)C)c(F)c4)c3OC[C@@H]2CO)s1 [Example 6-5]
37 | > 7.00 | Cc1cnc(N2c3cccc(C(=O)Nc4ccc(F)c(C(F)(F)F)c4)c3OC[C@@H]2CO)s1 [Example 6-8]

The remaining lines, values behind:

Row | SMILES | pIC50
38 | Cc1ccc(N2c3cccc(C(=O)Nc4ccc(OC(F)(F)F)cc4)c3OC[C@@H]2CO)nc1 [Example 4-07, (S)-4-(5-picoline-2-yl)-3-hydroxylmethyl-N-(4-trifluoromethoxyphenyl)-3,4-dihydro-2H-benzo[1,4]oxazine-8-carboxamide] | > 7.00
39 | CC(C)Oc1ccc(NC(=O)c2cccc3c2OC[C@H](CO)N3c2ncccc2Cl)cc1F [Example 4-09] | > 7.00
40 | CC(C)c1ccc(NC(=O)c2cccc3c2OC[C@H](CO)N3c2ncccc2Cl)cc1 [Example 4-17] | > 7.00
41 | COc1ccc(NC(=O)c2cccc3c2OC[C@H](CO)N3c2ncccc2Cl)cc1C(F)(F)F [Example 4-24] | > 7.00
42 | Cc1ccc(N2c3cccc(C(=O)Nc4ccc(N5CCOCC5)c(C(F)(F)F)c4)c3OC[C@@H]2CO)nc1 [Example 4-29] | > 7.00
43 | Cc1ccc(N2c3cccc(C(=O)Nc4ccc(C(F)(F)F)c(F)c4)c3OC[C@@H]2CO)nc1 [Example 4-30] | > 7.00
44 | Cc1ccc(N2c3cccc(C(=O)Nc4ccc(OC(F)(F)F)c(Cl)c4)c3OC[C@@H]2CO)nc1 [Example 4-31] | > 7.00
45 | O=C(Nc1ccc(N2CCOCC2)c(C(F)(F)F)c1)c1cccc2c1OC[C@H](CO)N2c1ncccc1Cl [Example 4-39] | > 7.00
46 | Cc1ccc(N2c3cccc(C(=O)Nc4ccc(C(F)(F)F)cc4Cl)c3OC[C@@H]2CO)nc1 [Example 4-40] | > 7.00
47 | Cc1cccnc1N1c2cccc(C(=O)Nc3ccc(OC(F)(F)F)cc3)c2OC[C@@H]1CO [Example 4-41] | > 7.00
48 | Cc1cccnc1N1c2cccc(C(=O)Nc3ccc(C(F)(F)F)cc3)c2OC[C@@H]1CO [Example 4-42] | > 7.00
49 | Cc1cccnc1N1c2cccc(C(=O)Nc3ccc(OC(C)(C)C)c(F)c3)c2OC[C@@H]1CO [Example 4-43] | > 7.00
50 | Cc1cccnc1N1c2cccc(C(=O)Nc3ccc(OCC(C)C)c(F)c3)c2OC[C@@H]1CO [Example 4-44] | > 7.00
51 | Cc1ccc(N2c3cccc(C(=O)Nc4ccc(OCC(C)C)c(C(F)(F)F)c4)c3OC[C@@H]2CO)nc1 [Example 4-45] | > 7.00
52 | Cc1ccc(N2c3cccc(C(=O)Nc4ccc(N5CCOCC5)c(F)c4)c3OC[C@@H]2CO)nc1 [Example 4-47] | > 7.00
53 | Cc1ccc(N2c3cccc(C(=O)Nc4ccc(Cl)cc4)c3OC[C@@H]2CO)nc1 [Example 4-48] | > 7.00
54 | Cc1ccc(N2c3cccc(C(=O)Nc4ccc(OC(C)(C)C)c(F)c4)c3OC[C@@H]2CO)nc1 [Example 4-50] | > 7.00
55 | O=C(Nc1ccc(OC(F)(F)F)cc1)c1cccc2c1OCC(CO)N2c1ncccc1Cl (centres unmarked) [Example 4-52] | > 7.00
56 | Cc1ccc(N2c3cccc(C(=O)Nc4ccc(OCC(C)C)c(F)c4)c3OC[C@@H]2CO)nc1 [Example 4-54] | > 7.00
57 | O=C(Nc1ccc(C(F)(F)F)cc1)c1cccc2c1OCCN2c1ccc(Cl)nn1 [Example 5-4, 4-(6-chloropyridazine-3-yl)-N-(4-trifluoromethylphenyl)-3,4-dihydro-2H-benzo[1,4]oxazine-8-carboxamide] | > 7.00
58 | Cc1csc(N2CCOc3c(C(=O)Nc4ccc(OC(F)(F)F)cc4)cccc32)n1 [Example 5-5, 4-(4-methylthiazol-2-yl)-N-(4-trifluoromethoxyphenyl)-3,4-dihydro-2H-benzo[1,4]oxazine-8-carboxamide] | 6.00 to 7.00
59 | Cc1cnc(N2CCOc3c(C(=O)Nc4ccc(OC(F)(F)F)cc4)cccc32)s1 [Example 5-6, 4-(5-methylthiazol-2-yl)-N-(4-trifluoromethoxyphenyl)-3,4-dihydro-2H-benzo[1,4]oxazine-8-carboxamide] | > 7.00
60 | Cc1cnc(N2c3cccc(C(=O)Nc4ccc(C(F)(F)F)cc4)c3OC[C@@H]2CO)s1 [Example 6-2, (S)-3-hydroxymethyl-4-(5-methylthiazol-2-yl)-N-(4-trifluoromethylphenyl)-3,4-dihydro-2H-benzo[1,4]oxazine-8-carboxamide] | > 7.00
61 | Cc1cnc(N2c3cccc(C(=O)Nc4ccc(OCC(C)C)c(F)c4)c3OC[C@@H]2CO)s1 [Example 6-6] | > 7.00
62 | Cc1cnc(N2c3cccc(C(=O)Nc4ccc(Br)c(F)c4)c3OC[C@@H]2CO)s1 [Example 6-7] | > 7.00
